From patent US20180360972A1, “THERAPEUTIC COMPOUNDS” (REGENTS OF THE UNIVERSITY OF MINNESOTA, priority 2017, published 2018)
“Also recorded” adds a separate entry of the source. Square brackets hold non-standard residues; d marks the D form. Peptide text beside a SMILES is read from it.

Experiments:
hMC4R [1] = biological target: T1, hMC4R (Homo sapiens, UniProt P32245); assay: cAMP Signaling | EC50 (nM)
T1 construct: Flag; expressed in transfected cells
Procedure: Table printed on a drawing sheet, Figure 20
The cAMP signaling potency was determined by AlphaScreen™ assays. […] The reported errors are the standard error of the mean (SEM) determined from at least three independent experiments. Changes less than 3-fold were considered to be within the inherent experimental assay error.
Target sequence in this assay (P32245 whole entry, looked up): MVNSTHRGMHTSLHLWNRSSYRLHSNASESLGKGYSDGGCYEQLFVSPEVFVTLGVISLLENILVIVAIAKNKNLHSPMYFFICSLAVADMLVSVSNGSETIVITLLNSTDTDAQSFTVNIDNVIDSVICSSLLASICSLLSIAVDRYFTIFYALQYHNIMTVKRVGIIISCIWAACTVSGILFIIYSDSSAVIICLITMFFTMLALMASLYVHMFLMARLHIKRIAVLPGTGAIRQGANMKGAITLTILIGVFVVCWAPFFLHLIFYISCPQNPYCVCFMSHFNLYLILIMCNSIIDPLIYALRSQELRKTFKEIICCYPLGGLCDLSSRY

hMC4R [2] = biological target: T1, hMC4R; assay: β-Arrestin Recruitment | EC50 (nM)
Target sequence in this assay (P32245 whole entry, looked up): as above

[3] = biological target: mMC4R-NanoLuc and mMC4R-HaloTag homodimer (Mus musculus, UniProt P56450); assay: NanoBRET ligand-dependent modulation of BRET signal; conditions: for change in BRET signal (in words): 10^−5, 10^−7 and 10^−9 M vs assay buffer; for reduction in BRET signal compared to basal signal: ligand at 10 μM
Procedure: On the first day, cells were plated into 6 well plates in the morning. In the afternoon of the same day, cells were transiently transfected with mMC4R-NanoLuc® fusion protein and the MC4R-HaloTag® fusion protein by adding FuGene6 Transfection (8 μL/well, Promega), DNA (2 μg/well) in OptiMem medium (Invitrogen) at a total volume of 100 μL/well. […] Cells were incubated with transfection reagent overnight at 5% CO2 at 37° C.
This provides the background signal and was subtracted from the final experimental signal. Plates were then developed 48 to 60 hours after transfection. Two hours before the plates were developed, 10 μL of a 10× aliquot of the ligand diluted in assay buffer was added to each well to yield the final in well concentration (10^−5, 10^−7, or 10^−9M) of each compound. For the assay buffer control, 10 μL of assay buffer was added instead of compound. […] The standard error of the mean (SEM) was derived from at least three independent experiments.

hMC4R [4] = biological target: T1, hMC4R; assay: PRESTO-Tango β-arrestin recruitment assay; assay type: cell-based; conditions: at 10 μM
Procedure: The PRESTO-Tango technology is an open-source resource that has been utilized to identify ligands for orphan receptors based on β-arrestin recruitment.
The plasmids and assay technology was kindly provided by the Bryan Roth laboratory (University of North Carolina at Chapel Hill) and are now available through ADDGENE (Kit # 1000000068).
The first day of the assay, HTLA cells were plated at approximately 1×10^6 cells per 10 cm plate and grown to 20-40% confluency. […] The third day, cells were removed from 10 cm plates using Gibco® Versene solution and pelleted by centrifugation (Sorvall Super T21 high speed centrifuge, swinging bucket rotor) at 800 rpm for five minutes at room temperature. Cells were manually counted on a hemocytometer and resuspended in 1% dialyzed FBS and 1% penicillin/streptomycin in DMEM to a final concentration of 400,000 cells/mL. […] Stimulated cells were incubated for 18 hours in 5% CO2 at 37° C. On the fifth day, the assay buffer and cell medium was removed by aspiration. […] After incubation, luminescence was then read on an EnSpire™ Alpha plate reader using a pre-normalized assay protocol for luminescence set by the manufacturer. Dose response curves were analyzed using the PRISM program (v4.0; GraphPad Inc.).
Target sequence in this assay (P32245 whole entry): as the sequence (P32245 whole entry, looked up) above

male wild type mice = assay type: in vivo; conditions: nocturnal paradigm; 5.0 or 2.5 nmols CJL-1-124
Procedure: (§1) All experiments were performed in accordance with the Institutional Animal Care and Use Committee (IACUC) at the University of Minnesota. Female and male littermates with mixed background from C57BL/6J and 129/Sv inbred strains were 8 weeks old at the time of surgeries. Mice were individually housed after surgeries and for the remainder of the experiment. Mice were maintained on a 12 hr light/dark cycle (Lights off was at 11:59 AM) in a temperature controlled room (23-25° C.). In the nocturnal feeding paradigm, mice had free access to normal chow (Harlan Teklad 2018 Diet: 18.6% crude protein, 6.2% crude fat, 3.5% crude fiber, with energy density of 3.1 kcal/g). […] Mice had free access to tap water throughout all the experiments. The cannula placement validation studies and conventional cage studies were performed in standard mouse polycarbonate conventional cages provided by University of Minnesota's Research Animal Resources (RAR). Weekly cage changes were conducted by lab research staff.
(§2) Mice were anesthetize with a mixture of ketamine (100 mg/kg) and xylazine (5 mg/kg) and were positioned in a stereotaxic apparatus (David Kopf Instruments). A 26-gauge cannula (Cat# 81C315GS4SPC; PlasticsOne, Roanoke, Va.) was inserted in the lateral cerebral ventricle at the coordinates 1.0 mm lateral and 0.46 mm posterior to bregma and 2.3 mm ventral to the skull (Franklin, K. B. J. & Paxinos, G. The Mouse Brain in Stereotaxic Coordinates. (Academic Press, 1997)).
(§3) Each mouse was administered hPYY and saline on different days following a crossover design in the nocturnal feeding paradigm. In the nocturnal paradigm, compound is administered 2 hours prior to lights out with free access to food and water throughout the entire experiment. There was at least a 4 day washout period between administration to ensure that normal feeding patterns and body weight returned. Food intake and body weight were manually measured 2, 4, and 6 hours after hPYY or saline administration. A mouse with a validated cannula placement for the TSE cage experiments consumed at least 1.0 g more after hPYY administration compared to saline administration 4 hours post-administration.
(§4) As stated above, conventional cage experiments were performed in standard mouse polycarbonate conventional cages. […] All experiments followed a cross-over paradigm in which the mouse received saline and compound on different days with a washout period in between each treatment. Statistical analysis was performed using SPSS V23 software (IBM) using a multivariate general linear model followed by a Bonferroni's post hoc test. Results are presented as Mean±SEM. Statistically significant was considered p<0.05.

hMC4R [5] = biological target: T1, hMC4R; assay: AlphaScreen cAMP functional bioassay, hMC4R; assay type: cell-based; conditions: HEK293 cells stably expressing hMC4R
Procedure: Upon agonist stimulation, melanocortin receptors are known to signal through a Gαs-protein mediated signaling pathway that results in intracellular cAMP accumulation.
Stable populations were selected for using G418 selection (0.7-1.0 mg/mL) and used in bioassays unless indicated otherwise. In vitro experimental ligands were dissolved to a 10^−2 M stock in DMSO and stored at −20° C. Subsequent dilutions were performed in each assay's specific buffer to achieve the final concentration in the well. The ligands were assayed as TFA salts.
AlphaScreen cAMP Functional Bioassay
The AlphaScreen® assay was performed as described by manufacturer.
Cells were removed from plates using Gibco® Versene solution and pelleted by centrifugation (Sorvall Super T21 high speed centrifuge, swinging bucket rotor) at 800 rpm for five minutes. […] A 10 μL aliquot of cell suspension was counted manually using a hemocytometer after addition of Trypan blue dye (BioRad). Cells were again pelleted by centrifugation, and DPBS was gently aspirated. The pelleted cells were then resuspended in a solution of freshly made stimulation buffer (Hank's Balanced Salt Solution [HBSS 10× [−] sodium bicarbonate] and [−] phenol red, Gibco®], 0.5 mM isobutylmethylxanthine [IBMX], 5 mM HEPES buffer solution [1M, Gibco®], 0.1% bovine serum albumin [BSA] in Milli-Q water, pH=7.4) and anti-cAMP acceptor beads (1.0 unit per well, AlphaScreen®). […] The cells were then stimulated with ligand diluted in stimulation buffer to achieve their final concentrations in the well ranging from 10^−13 to 10^−4 M. The stimulated plates were incubated in a dark laboratory drawer at room temperature for two hours.
Meanwhile, a biotinylated cAMP/streptavidin donor bead working solution was made by adding biotinylated cAMP (1 Unit/well, AlphaScreen®) and streptavidin donor beads (1 Unit/well, AlphaScreen®) to a lysis buffer (10% Tween-20, 5 mM HEPES buffer solution [1M, Gibco®], 0.1% bovine serum albumin [BSA] in Milli-Q water, pH=7.4). After the two hour stimulation, the biotinylated cAMP/Streptavidin donor bead working solution was added to each well under green light and mixed well by pipetting up and down. The cells were incubated for another two hours at room temperature in a dark drawer at room temperature. The plate was then read on an EnSpire™ Alpha plate reader using a pre-normalized assay protocol set by the manufacturer. Assays were performed with duplicate data points on each plate and repeated in at least three independent experiments.
Dose response curves were analyzed using the PRISM program (v4.0; GraphPad Inc.).
Target sequence in this assay (P32245 whole entry): as the sequence (P32245 whole entry, looked up) above

wild type mice = assay: ICV administration, conventional cages, wild type mice; assay type: in vivo; conditions: preliminary conventional cage experiments; fasting paradigm
Procedure: as §1, §2, §3, §4

male MC3RKO mice = assay: ICV administration, TSE metabolic cages, male MC3RKO mice; assay type: in vivo; conditions: nocturnal paradigm; 2.5 to 5 nmols
Procedure: as §1, §2, §4
In order to more clearly understand the effects of the biased agonism at the MC4R, the effects of administration of CJL-5-58 was explored in MC3R knockout (KO) mice and MC4RKO mice. […] Adverse reactions included two mice dying after the 5 nmol dose. […] The large error in activity may serve as an indication of toxicity. It is currently difficult to decipher whether the adverse reactions observed are due to paradigm effects, genotype difference, or compound toxicity.

male MC4RKO mice = assay: ICV administration, conventional cages, male MC4RKO mice; assay type: in vivo; conditions: ICV 2.5 to 5 nmols; conventional cages
Procedure: as §1, §2, §4
In male MC4RKO mice, CJL-5-58 was administered at 5 nmols in both a nocturnal paradigm and a fasting-refeeding paradigm in standard conventional cages (FIG. 15). The dose was well handled in the nocturnal paradigm, but minimal effect was observed.

Sequence of mMC4R-NanoLuc and mMC4R-HaloTag homodimer (P56450 whole entry): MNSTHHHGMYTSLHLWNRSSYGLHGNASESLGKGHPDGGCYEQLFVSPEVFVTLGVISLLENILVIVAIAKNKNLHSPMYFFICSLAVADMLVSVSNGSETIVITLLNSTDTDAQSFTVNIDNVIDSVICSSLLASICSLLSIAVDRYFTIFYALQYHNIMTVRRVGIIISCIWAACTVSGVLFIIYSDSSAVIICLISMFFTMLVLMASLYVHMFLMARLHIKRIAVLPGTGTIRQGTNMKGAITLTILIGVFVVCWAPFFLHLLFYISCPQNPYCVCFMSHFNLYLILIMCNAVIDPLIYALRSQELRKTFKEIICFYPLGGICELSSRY
Sequence of mMC4R-NanoLuc and mMC4R-HaloTag homodimer (P56450 whole entry): as above

Compound | EC50 (hMC4R [1]) [nM] | EC50 (hMC4R [2]) [nM] | change in BRET signal (in words) [3] | reduction in BRET signal compared to basal signal [3] [%] | also measured
CC(=O)N[C@@H](Cc1c[nH]cn1)C(=O)N[C@H](Cc1ccccc1)C(=O)N[C@@H](CCCNC(=N)N)C(=O)N[C@@H](Cc1c[nH]c2ccccc12)C(=O)NCCCOCCOCCOCCCNC(=O)COCC(=O)NCCCOCCOCCOCCCNC(=O)COCC(=O)N[C@@H](Cc1c[nH]cn1)C(=O)N[C@H](Cc1ccccc1)C(=O)N[C@@H](CCCNC(=N)N)C(=O)N[C@@H](Cc1c[nH]c2ccccc12)C(N)=O [CJL-5-72, Ac-His-DPhe-Arg-Trp-(PEDG20)-(PEDG20)-His-DPhe- Arg-Trp-NH2] | 1.2 ± 0.3 | 280 ± 40 |  |  | 
CC(=O)N[C@@H](Cc1c[nH]cn1)C(=O)N[C@H](Cc1ccc2ccccc2c1)C(=O)N[C@@H](CCCNC(=N)N)C(=O)N[C@@H](Cc1c[nH]c2ccccc12)C(N)=O [CJL-1-80, Ac-His-DNal(2′)-Arg-Trp-NH2] |  |  | no significant changes in BRET signal |  | β-arrestin response compared to maximal efficacy of NDP-MSH (hMC4R [4]): 30%
CC(=O)N[C@@H](Cc1cnc[nH]1)C(=O)N[C@H](Cc1ccc2ccccc2c1)C(=O)N[C@@H](CCCNC(=N)N)C(=O)N[C@@H](Cc1c[nH]c2ccccc12)C(=O)NCCCOCCOCCOCCCNC(=O)COCC(=O)N[C@@H](Cc1cnc[nH]1)C(=O)N[C@H](Cc1ccccc1)C(=O)N[C@@H](CCCNC(=N)N)C(=O)N[C@@H](Cc1c[nH]c2ccccc12)C(N)=O [CJL-1-124, Ac-His-DNal(2′)-Arg-Trp-(PEDG20)-His-DPhe-Arg-Trp-NH2] |  |  |  | ~8 | adverse reactions / toxicity (male wild type mice): some signs of adverse reactions observed at higher 5 nmol dose; also recorded: Some toxicity was observed; cAMP agonist potency (in words) (hMC4R [5]): single digit nanomolar agonists; adverse effects (wild type mice): strong adverse effects; adverse reactions / toxicity (male MC3RKO mice): some signs of toxicity were observed; also recorded: Some toxicity was observed; toxicity (male MC4RKO mice): some signs of toxicity were observed; also recorded: Some toxicity was observed
N=C(N)NCCC[C@H](NC(=O)[C@@H](Cc1ccccc1)NC(=O)[C@H](Cc1c[nH]cn1)NC(=O)CNC(=O)[C@@H]1CCCN1C(=O)CNC(=O)[C@@H]1CCCN1C(=O)CNC(=O)[C@@H]1CCCN1C(=O)CNC(=O)[C@@H]1CCCN1C(=O)CNC(=O)[C@@H]1CCCN1C(=O)CNC(=O)[C@@H]1CCCN1)C(=O)N[C@@H](Cc1c[nH]c2ccccc12)C(N)=O [CJL-1-41, (Pro-Gly)6-His-DPhe-Arg-Trp-NH2] (H-PGPGPGPGPGPGH[dF]RW-NH2; N-terminus assumed) | 1.1 ± 0.07 | 1500 ± 500 |  |  | 
CC(=O)N[C@@H](Cc1c[nH]cn1)C(=O)N[C@H](Cc1ccccc1)C(=O)N[C@@H](CCCNC(=N)N)C(=O)N[C@@H](Cc1c[nH]c2ccccc12)C(=O)N1CCC[C@H]1C(=O)NCC(=O)N1CCC[C@H]1C(=O)NCC(=O)N1CCC[C@H]1C(=O)NCC(=O)N1CCC[C@H]1C(=O)NCC(=O)N1CCC[C@H]1C(=O)NCC(=O)N1CCC[C@H]1C(=O)NCC(=O)N[C@@H](Cc1c[nH]cn1)C(=O)N[C@H](Cc1ccccc1)C(=O)N[C@@H](CCCNC(=N)N)C(=O)N[C@@H](Cc1c[nH]c2ccccc12)C(N)=O [CJL-1-31, Ac-His-DPhe-Arg-Trp-(Pro-Gly)6-His-DPhe-Arg-Trp-NH2] (Ac-H[dF]RWPGPGPGPGPGPGH[dF]RW-NH2) | 0.95 ± 0.08 | 1900 ± 600 |  |  | 
Ac-His-DPhe-Arg-Trp-NH2 [CJL-1-14] |  |  | dose dependent decrease in BRET signal | 15 | 
α-MSH |  |  | dose dependent decrease in BRET signal | 15 | 
CC(=O)N[C@@H](Cc1c[nH]cn1)C(=O)N[C@H](Cc1ccccc1)C(=O)N[C@@H](CCCNC(=N)N)C(=O)N[C@@H](Cc1c[nH]c2ccccc12)C(=O)NCCCOCCOCCOCCCNC(=O)COCC(=O)N[C@@H](Cc1c[nH]cn1)C(=O)N[C@H](Cc1ccccc1)C(=O)N[C@@H](CCCNC(=N)N)C(=O)N[C@@H](Cc1c[nH]c2ccccc12)C(N)=O [CJL-1-87] |  |  |  | ~15 | 
CC(=O)N[C@@H](Cc1c[nH]cn1)C(=O)N[C@H](Cc1ccccc1)C(=O)N[C@@H](CCCNC(=N)N)C(=O)N[C@@H](Cc1c[nH]c2ccccc12)C(=O)N1CCC[C@H]1C(=O)NCC(=O)N1CCC[C@H]1C(=O)NCC(=O)N1CCC[C@H]1C(=O)NCC(=O)N1CCC[C@H]1C(=O)NCC(=O)N1CCC[C@H]1C(=O)NCC(=O)N1CCC[C@H]1C(=O)NCC(N)=O [CJL5-35-1, Ac-His-DPhe-Arg-Trp-(Pro-Gly)6-NH2] (Ac-H[dF]RWPGPGPGPGPGPG-NH2) | 5.5 ± 0.7 | 1600 ± 600 |  |  | 
Ac-His-DNal(2′)-Arg-Trp-(PEDG20)-(PEDG20)-His-DPhe-Arg-Trp-NH2 [CJL-5-74, MUmBL; linker assigned from order of b161-b164 and b248] |  |  |  |  | cAMP agonist potency (in words) (hMC4R [5]): single digit nanomolar agonists
